According to US11420994B2, “Carbon-monoxide-releasing molecules and therapeutic applications thereof” (GEORGIA STATE UNIVERSITY RESEARCH FOUNDATION, INC., priority 2016, dated 2022):

Assays:
RAW cells = assay: WST-1 cytotoxicity test; assay type: cell-based, mouse
Protocol: In order to assess the cytotoxic effect of the reactants, 1 and 6a, as well as product 31, on RAW cells, the cytotoxicity test WST-1 was performed to examine induction by TPCPD (1) and BCN (6a) over varying concentrations and periods of time (FIGS. 3a-c).
Different concentrations of each molecule were assessed: from 0.78 to 100 μM for 1 and 31 and 7.8 to 1000 μM for 6a. Different time points were assessed (1 h, 4 h, 8 h and 24 h). Triton 0.1% was used as a positive control of cytotoxicity and the subsequent value was established as 100% of cytotoxicity.

[1] = Reaction of TPCPD with cyclooctynes at 50 mM, time to completion; assay type: physicochemical; details: 50 mM concentration
[2] = CO release kinetics by increase of fluorescence intensity; assay type: physicochemical; details: DMSO/PBS (pH = 7.4) 5:1 at 37° C.
Protocol: Compound 10a was dissolved indifferent solvents including CH2Cl2 (25° C.), CH3CN (25° C.), DMSO (25° C.), DMSO/PBS (10:1, 25° C.), DMSO/PBS (5:1, 25° C.), and DMSO/PBS (5:1, 37° C.) to give a final concentration of around 100 μM, and CO release was monitored by fluorescence intensity at 450 nm. Each experiment was repeated three times independently. The CO release rate (first order reaction rate) in DCM, CH3CN, DMSO, DMSO/PBS (10:1), DMSO/PBS (5:1), and DMSO/PBS (5:1, 37° C.) were different and their individual rate constant was calculated to be 2.3±0.2, 3.6±0.4, 6.6±0.6, 7.7±0.6, 11.0±1.4 and 22.4±3.2 h^−1, respectively. […] The CO release rate increased along with the polarity of the solvent.

[3] = Fluorescence properties of the cycloaddition products; assay type: physicochemical; details: for λem emission wavelength / λex excitation wavelength: of the cycloaddition products 44a-44f and 100a; for Φ quantum yield: of the cycloaddition products 44a-44f and 100a in MeOH, quinine sulfate as the standard
TNF-α = TNF-α ELISA in LPS treated RAW 264.7 cells pre-treated with CO prodrug; assay type: cell-based, mouse; details: pre-treated 5 h, then LPS 1 h
Protocol: RAW 264.7 cells were seeded in the 48-well plate one day before the experiment.
LPS was used to initialize the inflammatory response in RAW 264.7 cells and trigger the expression of cytokines. RAW 264.7 cells were pre-treated with different concentrations of 10b or 44b product for 5 hours. Thereafter, […] LPS was added with into the cell culture media. For TNF-α test, the cell culture supernatant was collected after 1 hour of LPS treatment. For IL-6 test, the cell culture supernatant was collected after 4 hours of LPS treatment. Cell culture without LPS treatment was used as control.
10a-10d, and 100 with different release rates were chosen to test their inhibitory effect against lipopolysaccharide (LPS) induced TNF-α secretion in RAW 264.7 cells. […] This was followed by the treatment of LPS for another 1 h. Then the cell culture supernatants were subjected to ELISA assay for TNF-α levels.

TNBS induced colitis = TNBS induced colitis in mice; assay type: in vivo
Protocol: Male adult C57BL/6 mice (8-12 weeks, 20-25 g) were obtained from Sichuan University laboratory animal center, and housed in standard conditions with constant temperature (22±2° C.) and 12 h light-dark cycle, free to sterile water and standard food.
TNBS (Trinitrobenzene sulfonic acid) enema was used for colitis induction.^3 Mice were randomly assigned into four groups: sham control group, TNBS model group, 10b treatment group and 44b group. Briefly, mice were fasted for 24 h, and then lightly anesthetized with 1% isoflurane. TNBS (in saline-ethanol, 50:50, v/v) solution 50 μL was infused into the colon using a cannula with the depth of 4 cm from anus. Mice in sham control group received 50 μL vehicle (saline-ethanol, 50:50, v/v). Mice were held with a vertical position for at least 30s after infusion, for sake of homogenous distribution and retention of TNBS. Mice would not be put back to the cage until they wake up and have autonomous respiration.
Drug administration. Vehicle solution (Solutol:saline=30:70), 10b (15 mg/kg) and 44b (15 mg/kg) was i.p. injected 1 hour before model construction; and 24 h, 48 h and 72 h after model construction. Euthanasia was conducted on 1st/3rd/7th day respectively through intraperitoneally injecting of pentobarbital sodium, and samples were removed and analyzed later.
Macroscopic evaluation of colitis damage. Colons were removed quickly and lengths were measured and represented in centimeter. After that, colons were longitudinally excised and carefully washed with ice-cold normal saline. Macroscopic signs of colon damage were evaluated by an experimenter blind to the mice grouping, according to an established semi-quantitative scoring system: Ulcer (0.5 points=0.5 cm); Colonic shortening (1 point≥15%, 2 points≥25%, based on the average length of colons from the control group); Every additional presence of hemorrhage, diarrhea or fecal blood added 1 point to the score. Intestinal wall thickness was measured in millimeter and recorded as well.
Mice were dosed with 10b (15 mg/kg), 44b (15 mg/kg), or the vehicle (solutol/saline=30:70) control by intraperitoneal injection 1 h before the model construction, and then dosed again at 24 h, 48 h and 72 h time points after the model construction; and then sacrificed. Colon was removed for macroscopic evaluation of colitis damage.

[4] = Determination of CO release rates (fluorescence or UV absorbance); assay type: physicochemical; details: DMSO/PBS (4:1) at 37° C.
Protocol: For CO prodrugs with naphthalene scaffold, the CO release rate is easily done by monitoring the fluorescence intensity of the cyclized product. For the others, the CO release rate was determined by employing the UV absorbance difference between the prodrugs and the cyclized product.

[5] = Kinetics of the Diels-Alder reaction of TPCPD with exo-BCN (UV-Vis); assay type: physicochemical
Protocol: Separate solutions of pure TPCPD (1) and pure exo-BCN (6a) (>95-98% by H-NMR) were prepared in HPLC-grade methanol (acetonitrile, 1,2-dichloroethane, dioxane) at room temperature. The stability of TPCPD in methanol (25 μM) was examined by monitoring its absorption maximum at 335 nm. The solutions containing TPCPD (1, 50 μM, 400 μL) and 18-fold excess of exo-BCN (6a, 900 μM, 400 μL) were added into quartz cuvettes, thoroughly mixed and sealed with a PTFE cap. All kinetic runs were triplicates. Curve fitting was operated in Prism5 software.
The reaction between 1 and 6a (Scheme 8) leads to significant changes in the UV-Vis spectrum of TPCPD […] due to its conversion to the cyclization product 31 (FIG. 1a). Therefore, the reaction can be easily monitored.
It was observed that the reaction rate between TPCPD and BCN was moderately sensitive to the reaction solvent. Methanol, acetonitrile, […] (DCE), and dioxane were chosen for the kinetic studies. The reaction appears to be faster in polar solvents than in nonpolar solvents. […] In order to utilize the reaction under physiological conditions, the reaction rate was measured at physiological temperature, 37° C.

[6] = 8 h, within the concentration range studied
[7] = 15 mg/kg i.p., compared to the TNBS group

## OCC1[C@H]2CCC#CCC[C@@H]12 (some centres unmarked) [BCN]
RAW cells; [6]
  cytotoxicity: Neither 6a (FIG. 3b) and nor the product (FIG. 3c) displayed any sign of cytotoxicity
RAW cells; 24 h, 1 mM
  cytotoxicity: 60%
[1]
  time in which reaction with TPCPD finished: ≤ 5 min

## CN(CC#C[Si](c1ccccc1)(c1ccccc1)C(C)(C)C)C(=O)C1=C2C(=C(c3ccccc3)C1=O)c1cccc3cccc2c13 [Compound 10d]
[2]
  k CO release rate: 22.6 ± 0.2 h⁻¹
[3]
  λem emission wavelength: 456 nm
  λex excitation wavelength: 378 nm
  Φ quantum yield: 0.21
TNF-α
  LPS-induced TNF-α expression / secretion: suppressed TNF-α secretion, but it did not show any dose-dependent effect

## C#CCOC(=O)C1=C2C(=C(c3ccccc3)C1=O)c1cccc3cccc2c13 [Compound 10e]
[3]
  λem emission wavelength: 454 nm
  λex excitation wavelength: 367 nm
  Φ quantum yield: 0.14

## C#CCNC(=O)C1=C2C(=C(c3ccccc3)C1=O)c1cccc3cccc2c13 [Compound 10f]
[3]
  λem emission wavelength: 456 nm
  λex excitation wavelength: 370 nm
  Φ quantum yield: 0.18

## OC[C@@H]1[C@H]2CCc3c(c(-c4ccccc4)c(-c4ccccc4)c(-c4ccccc4)c3-c3ccccc3)CC[C@@H]12 [Compound 31]
RAW cells; [6]
  cytotoxicity: Neither 6a (FIG. 3b) and nor the product (FIG. 3c) displayed any sign of cytotoxicity
RAW cells; 24 h, within the concentration range tested
  cytotoxicity: not cytotoxic

## CC(C)N1CCc2cc(-c3ccccc3)c3c(c2C1=O)-c1cccc2cccc-3c12 [Compound 44b]
TNF-α
  LPS-induced TNF-α expression / secretion: did not show any TNF-α suppression effects
TNBS induced colitis; 15 mg/kg i.p. 1 h before and 24, 48, 72 h after TNBS
  survival rate: no similar effects were observed
TNBS induced colitis; [7]
  colon length: no similar effects were observed
  colon thickness: no similar effects were observed
  injury score: no similar effects were observed

## Cc1c2c(c3c(c1-c1ccccc1)-c1cccc4cccc-3c14)C(=O)N(C(C)C)CC2 [Compound 44c]
TNF-α
  LPS-induced TNF-α expression / secretion: did not show any TNF-α suppression effects

## CN1Cc2c(c3c(c(-c4ccccc4)c2[Si](c2ccccc2)(c2ccccc2)C(C)(C)C)-c2cccc4cccc-3c24)C1=O [Compound 44d]
TNF-α
  LPS-induced TNF-α expression / secretion: did not show any TNF-α suppression effects

## C#CC(C)OC(=O)C1=C2C(=C(c3ccccc3)C1=O)c1cccc3cccc2c13 (centres unmarked) [Compound 104]
[4]
  K CO release: 0.012 ± 0.0003 h⁻¹

## C#CC(C)(C)OC(=O)C1=C2C(=C(c3ccccc3)C1=O)c1cccc3cccc2c13 [Compound 105]
[4]
  K CO release: 1.28 ± 0.183 h⁻¹

## C#CC(C)NC(=O)C1=C2C(=C(c3ccccc3)C1=O)c1cccc3cccc2c13 (centres unmarked) [Compound 108]
[4]
  K CO release: 0.058 ± 0.003 h⁻¹

## C#CC(C)(C)NC(=O)C1=C2C(=C(c3ccccc3)C1=O)c1cccc3cccc2c13 [Compound 109]
[4]
  K CO release: 3.31 ± 0.28 h⁻¹

## C#CCCN(CCN1CCOCC1)C(=O)C1=C2C(=C(c3ccccc3)C1=O)c1cccc3cccc2c13 [Compound 110]
[4]
  time in which CO release was finished: CO release was finished in 4 h.

## C#CC(C)(C)NC(=O)C1=C2C(=C(SC)C1=O)c1cccc3cccc2c13 [Compound 111]
[4]
  K CO release: 4.63 ± 0.28 h⁻¹

## C#CC(C)(C)OC(=O)C1=C2C(=C(SC)C1=O)c1cccc3cccc2c13 [Compound 112]
[4]
  K CO release: 1.29 ± 0.07 h⁻¹

## C#CCOC(=O)C1=C(c2ccccc2)C(c2ccccc2)=C(c2ccccc2)C1=O [Compound 119]
[4]
  K CO release: 5.89 ± 0.61 h⁻¹

## C#CC(C)OC(=O)C1=C(c2ccccc2)C(c2ccccc2)=C(c2ccccc2)C1=O (centres unmarked) [Compound 120]
[4]
  K CO release: 9.4 ± 0.02 h⁻¹

## C#CC(C)Oc1ccccc1C1=C2C(=C(C(=O)N3CCOCC3)C1=O)c1cccc3cccc2c13 (centres unmarked) [Compound 125]
[4]
  K CO release: 0.10 ± 0.003 h⁻¹

## C#CCN(c1ccccc1C1=C2C(=C(C(=O)N3CCOCC3)C1=O)c1cccc3cccc2c13)S(C)(=O)=O [Compound 127]
[4]
  K CO release: 0.88 ± 0.01 h⁻¹

## O=C1C(c2ccccc2)=C(c2ccccc2)C(c2ccccc2)=C1c1ccccc1 [TPCPD]
RAW cells; 8 h, 50 μM
  toxicity (Triton 0.1% = 100%): 44%
RAW cells; 8 h, 100 μM
  toxicity (Triton 0.1% = 100%): 49%
RAW cells; 24 h, concentrations higher than 12.5 μM
  cytotoxicity: more than 50%
[5]; CH3CN, r.t.
  k2 second order rate constant: 0.26 M⁻¹ s⁻¹
[5]; DCE, r.t.
  k2 second order rate constant: 0.17 M⁻¹ s⁻¹
[5]; Dioxane, r.t.
  k2 second order rate constant: 0.096 M⁻¹ s⁻¹
[5]; MeOH, 37° C.
  k2 second order rate constant: 1.1 M⁻¹ s⁻¹
[5]; MeOH, r.t.
  k2 second order rate constant: 0.50 M⁻¹ s⁻¹

## C1#CCCCCCC1 [cyclooctyne]
[1]
  time in which reaction with TPCPD finished: 15 min

## fluorocyclooctyne [fluorocycolooctyne]
[1]
  time after which reaction with TPCPD had not reached completion: > 24 h
